{"source": "the supplement of paper PMC10307832", "assay_in_all_cases": "relative viability (nuclei count vs DMSO), 5 days (fraction); higher = more cells survive", "key": {"Alpelisib + Linsitinib": {"compound": "Cc1nc(NC(=O)N2CCC[C@H]2C(N)=O)sc1-c1ccnc(C(C)(C)C(F)(F)F)c1 [Alpelisib] + C[C@]1(O)C[C@@H](c2nc(-c3ccc4ccc(-c5ccccc5)nc4c3)c3c(N)nccn32)C1 [Linsitinib] (partner 1 µM)", "outline": "(§1)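 The day after seeding in 1536-well plates, lung cancer cell lines were treated by pin tool with a single drug, or with a fixed anchor-drug dose together with five library-drug doses (not always all listed) in √10 steps. After 5 days, a combined fix-and-stain solution (final 0.05% Triton X-100, 1% formaldehyde, 1 ug/ml Hoechst) was added. Nuclei counted on 4× images gave relative viability as treated counts over vehicle counts, reported as the median of duplicate plates.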"}, "Alpelisib + Lapatinib": {"compound": "Cc1nc(NC(=O)N2CCC[C@H]2C(N)=O)sc1-c1ccnc(C(C)(C)C(F)(F)F)c1 [Alpelisib] + CS(=O)(=O)CCNCc1ccc(-c2ccc3ncnc(Nc4ccc(OCc5cccc(F)c5)c(Cl)c4)c3c2)o1 [Lapatinib] (partner 2 µM)", "outline": "as §1"}, "OSI-027 + Bortezomib": {"compound": "COc1cccc2cc(-c3nc([C@H]4CC[C@H](C(=O)O)CC4)n4ncnc(N)c34)[nH]c12 [OSI-027] + CC(C)C[C@H](NC(=O)[C@H](Cc1ccccc1)NC(=O)c1cnccn1)B(O)O [Bortezomib] (partner 0.002 µM)", "outline": "as §1"}, "OSI-027 + Linsitinib": {"compound": "COc1cccc2cc(-c3nc([C@H]4CC[C@H](C(=O)O)CC4)n4ncnc(N)c34)[nH]c12 [OSI-027] + C[C@]1(O)C[C@@H](c2nc(-c3ccc4ccc(-c5ccccc5)nc4c3)c3c(N)nccn32)C1 [Linsitinib] (partner 1 µM)", "outline": "as §1"}}, "data": [{"cell line": "UMC-11", "values": [{"measurement": "relative viability", "setting": "Alpelisib + Linsitinib; first compound 0.04 µM", "result": 0.953}, {"measurement": "relative viability", "setting": "Alpelisib + Linsitinib; first compound 0.1265 µM", "result": 1.03}, {"measurement": "relative viability", "setting": "Alpelisib + Linsitinib; first compound 0.4 µM", "result": 1.09}, {"measurement": "relative viability", "setting": "Alpelisib + Linsitinib; first compound 1.265 µM", "result": 0.995}, {"measurement": "relative viability", "setting": "Alpelisib + Linsitinib; first compound 4 µM", "result": 0.955}, {"measurement": "relative viability", "setting": "Alpelisib + Lapatinib; first compound 0.04 µM", "result": 1.03}, {"measurement": "relative viability", "setting": "Alpelisib + Lapatinib; first compound 0.1265 µM", "result": 0.948}, {"measurement": "relative viability", "setting": "Alpelisib + Lapatinib; first compound 0.4 µM", "result": 1.01}, {"measurement": "relative viability", "setting": "Alpelisib + Lapatinib; first compound 1.265 µM", "result": 1.02}, {"measurement": "relative viability", "setting": "Alpelisib + Lapatinib; first compound 4 µM", "result": 0.875}, {"measurement": "relative viability", "setting": "OSI-027 + Bortezomib; first compound 0.01 µM", "result": 0.565}, {"measurement": "relative viability", "setting": "OSI-027 + Bortezomib; first compound 0.03162 µM", "result": 0.646}, {"measurement": "relative viability", "setting": "OSI-027 + Bortezomib; first compound 0.1 µM", "result": 0.696}, {"measurement": "relative viability", "setting": "OSI-027 + Bortezomib; first compound 0.3162 µM", "result": 0.668}, {"measurement": "relative viability", "setting": "OSI-027 + Bortezomib; first compound 1 µM", "result": 0.503}, {"measurement": "relative viability", "setting": "OSI-027 + Linsitinib; first compound 0.01 µM", "result": 1}, {"measurement": "relative viability", "setting": "OSI-027 + Linsitinib; first compound 0.03162 µM", "result": 1.04}, {"measurement": "relative viability", "setting": "OSI-027 + Linsitinib; first compound 0.1 µM", "result": 0.944}, {"measurement": "relative viability", "setting": "OSI-027 + Linsitinib; first compound 0.3162 µM", "result": 0.676}, {"measurement": "relative viability", "setting": "OSI-027 + Linsitinib; first compound 1 µM", "result": 0.468}]}]}
